pIC50: −log10 of the molar value. Structures can show the parent of a compound that is named as a salt. Where two headings read alike, the source gives them in different places.
Columns and labels:
Pim-1 = Pim-1 (Homo sapiens (Human), UniProt P11309); assay: ADP-Glo Kinase Assay, Pim-1; type: biochemical; details: 1 μM compound; for inhibition at 1 µM: read-out: Pim-1 % INH (1 μM)
Summary of the method: (§1)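 Compounds were diluted in assay buffer to 1000 nM and incubated with kinase, substrate and ATP at apparent Km. Remaining ATP was depleted, ADP converted to ATP and detected by luciferase; percent inhibition came from normalized luminescence.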

Pim-2 = Pim-2 (Homo sapiens (Human), UniProt Q9P1W9); assay: ADP-Glo Kinase Assay, Pim-2; type: biochemical; details: 1 μM compound; for inhibition at 1 µM: read-out: Pim-2 % INH (1 μM)
Sequence of Pim-2 (Q9P1W9 whole entry): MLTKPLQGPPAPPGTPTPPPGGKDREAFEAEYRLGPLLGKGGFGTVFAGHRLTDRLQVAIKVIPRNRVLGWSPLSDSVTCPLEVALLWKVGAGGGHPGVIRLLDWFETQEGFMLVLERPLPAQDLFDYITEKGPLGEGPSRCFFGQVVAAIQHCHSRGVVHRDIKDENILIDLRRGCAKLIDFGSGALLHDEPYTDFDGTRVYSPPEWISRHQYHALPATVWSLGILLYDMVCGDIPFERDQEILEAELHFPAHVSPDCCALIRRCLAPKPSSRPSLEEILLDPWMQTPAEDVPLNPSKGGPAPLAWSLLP
Summary of the method: as §1

FLT3wt = FLT3wt (Homo sapiens (Human), UniProt P36888); assay: ADP-Glo Kinase Assay, Flt3 wt; type: biochemical; details: 1 μM compound; for inhibition at 1 µM: read-out: Flt3wt % INH (1 μM)
Sequence of FLT3wt (P36888 27-993): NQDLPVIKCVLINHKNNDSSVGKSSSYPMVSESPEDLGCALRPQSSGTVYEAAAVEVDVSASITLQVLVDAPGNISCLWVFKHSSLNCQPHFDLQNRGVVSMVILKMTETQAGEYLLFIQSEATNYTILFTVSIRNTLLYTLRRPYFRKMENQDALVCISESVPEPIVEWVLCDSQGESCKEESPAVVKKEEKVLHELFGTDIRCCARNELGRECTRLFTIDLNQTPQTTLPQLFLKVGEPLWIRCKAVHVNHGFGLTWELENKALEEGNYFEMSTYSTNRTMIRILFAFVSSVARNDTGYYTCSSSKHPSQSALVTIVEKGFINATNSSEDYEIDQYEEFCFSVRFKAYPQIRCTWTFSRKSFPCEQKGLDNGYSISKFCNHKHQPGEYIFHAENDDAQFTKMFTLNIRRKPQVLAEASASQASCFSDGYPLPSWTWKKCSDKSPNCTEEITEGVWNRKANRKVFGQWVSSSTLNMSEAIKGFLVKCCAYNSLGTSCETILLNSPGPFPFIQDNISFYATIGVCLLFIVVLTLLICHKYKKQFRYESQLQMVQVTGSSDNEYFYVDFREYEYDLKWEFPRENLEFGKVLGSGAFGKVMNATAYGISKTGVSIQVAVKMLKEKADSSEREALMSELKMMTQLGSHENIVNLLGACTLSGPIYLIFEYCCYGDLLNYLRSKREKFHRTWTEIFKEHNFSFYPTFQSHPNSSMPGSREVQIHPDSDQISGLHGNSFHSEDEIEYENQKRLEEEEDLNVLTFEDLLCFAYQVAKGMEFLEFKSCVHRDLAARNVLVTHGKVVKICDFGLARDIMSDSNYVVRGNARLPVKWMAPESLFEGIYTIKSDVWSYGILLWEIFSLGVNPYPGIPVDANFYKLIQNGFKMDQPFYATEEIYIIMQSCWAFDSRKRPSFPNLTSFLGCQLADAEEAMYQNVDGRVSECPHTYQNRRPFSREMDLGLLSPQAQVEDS
Summary of the method: as §1

CDK2/E = CDK2/E (Homo sapiens (Human), UniProt P24941); assay: ADP-Glo Kinase Assay, CDK2/E; type: biochemical; details: 1 μM compound; for inhibition at 1 µM: read-out: CDK2/E % INH (1 μM)
Summary of the method: as §1

DYRK1 = DYRK1 (Homo sapiens (Human), UniProt Q13627); assay: ADP-Glo Kinase Assay, DYRK1; type: biochemical; details: 1 μM compound; for inhibition at 1 µM: read-out: DYRK1A % INH (1 μM)
Summary of the method: as §1

MV4-11 cells = assay: Growth inhibition, MTS assay, MV4-11; type: cell-based, Human; details: MTS cell viability, read-out: MV4-11 ED50; for pIC50: Homo sapiens
HepG2 cells = assay: Growth inhibition, MTS assay, HepG2; type: cell-based, Human; details: MTS cell viability, read-out: HepG2 ED50; for pIC50: Homo sapiens
Jeko-1 cells = assay: Growth inhibition, MTS assay, Jeko-1; type: cell-based, Human; details: 72 hours, MTS cell viability, read-out: Jeko-1 ED50; for pIC50: Homo sapiens, JeKo-1
SW-480 cells = assay: Growth inhibition, MTS assay, SW-480; type: cell-based, Human; details: 72 hours, MTS cell viability, read-out: SW-480 ED50; for pIC50: Homo sapiens, SW480
MOLM16 cells = assay: Growth inhibition, MTS assay, MOLM16; type: cell-based, Human; details: MTS cell viability, read-out: MOLM 16 ED50; for pIC50: Homo sapiens
MOLM13 cells = assay: Growth inhibition, MTS assay, MOLM13; type: cell-based, Human; details: 72 hours, MTS cell viability, read-out: MOLM 13 ED50; for pIC50: Homo sapiens, MOLM-13
Description: (§2) The following cell lines, were obtained and used in tests as outlined below: • Human myelomonocytic, biphenotypic leukemia MV4-11 cells (harboring a Flt3-ITD mutation); • Human Acute Myeloid Leukemia MOLM16 cells; • Human Acute Myeloid Leukemia MOLM13 cells (harboring a Flt3-ITD mutation); • Human Myeloid Leukemia KG-1 cells; • Human erythroleukemia HEL92 cells; • Human mantle cell lymphoma Jeko-1 cells; • Human hepatocellular carcinoma HepG2 cells; and • Human colon adenocarcinoma SW-480 cells.
(§3) The assays were carried out according to the following protocol, which is described as an example for the MV4-11 cells:
(§4) Ten thousand MV4-11 cells were inoculated into each well of a 96-well microplate (manufactured by Corning Corp.) using Iscove's MDM medium (culture medium) containing 10% fetal calf serum (FCS). The same day, a dimethyl sulfoxide (DMSO) solution of each test compound prepared in a concentration of 10 mmol/L was further diluted with DMSO to the desired concentrations (0.1, 0.5, 1, 2.5, 5 and 10 micromol/L), and the diluted solution was added to each well. The individual wells were further cultured in 5% carbon dioxide at 37° C. for 72 hours. […] Briefly, 10 μl MTS (3-(4,5-Dimethyl-2-thiazolyl)-5-(carboxymethoxyphenyl)-2-(4-sulfophenyl)-2H-tetrazolium was added to each well, and culturing was performed in 5% carbon dioxide at 37° C. for 2 hours. After this incubation and using a microplate spectrophotometer (Synergy 2 multi-mode microplate reader (BioTek)), the absorbance of each well was measured at 490 nm. The value for cells not incubated with a test compound was designated as 100%. By comparing these values with the absorbance difference obtained at the well in which each test compound was added, the cell viability (% viability) after treatment with the test compound was calculated.

KG-1 cells = assay: Growth inhibition, MTS assay, KG-1; type: cell-based, Human; details: 72 hours, MTS cell viability
Description: as §2, §3, §4

hERG potassium channel = hERG potassium channel (Homo sapiens (Human), UniProt Q12809); assay: hERG automated patch clamp assay (QPatch HT)
Sequence of hERG potassium channel (Q12809 whole entry): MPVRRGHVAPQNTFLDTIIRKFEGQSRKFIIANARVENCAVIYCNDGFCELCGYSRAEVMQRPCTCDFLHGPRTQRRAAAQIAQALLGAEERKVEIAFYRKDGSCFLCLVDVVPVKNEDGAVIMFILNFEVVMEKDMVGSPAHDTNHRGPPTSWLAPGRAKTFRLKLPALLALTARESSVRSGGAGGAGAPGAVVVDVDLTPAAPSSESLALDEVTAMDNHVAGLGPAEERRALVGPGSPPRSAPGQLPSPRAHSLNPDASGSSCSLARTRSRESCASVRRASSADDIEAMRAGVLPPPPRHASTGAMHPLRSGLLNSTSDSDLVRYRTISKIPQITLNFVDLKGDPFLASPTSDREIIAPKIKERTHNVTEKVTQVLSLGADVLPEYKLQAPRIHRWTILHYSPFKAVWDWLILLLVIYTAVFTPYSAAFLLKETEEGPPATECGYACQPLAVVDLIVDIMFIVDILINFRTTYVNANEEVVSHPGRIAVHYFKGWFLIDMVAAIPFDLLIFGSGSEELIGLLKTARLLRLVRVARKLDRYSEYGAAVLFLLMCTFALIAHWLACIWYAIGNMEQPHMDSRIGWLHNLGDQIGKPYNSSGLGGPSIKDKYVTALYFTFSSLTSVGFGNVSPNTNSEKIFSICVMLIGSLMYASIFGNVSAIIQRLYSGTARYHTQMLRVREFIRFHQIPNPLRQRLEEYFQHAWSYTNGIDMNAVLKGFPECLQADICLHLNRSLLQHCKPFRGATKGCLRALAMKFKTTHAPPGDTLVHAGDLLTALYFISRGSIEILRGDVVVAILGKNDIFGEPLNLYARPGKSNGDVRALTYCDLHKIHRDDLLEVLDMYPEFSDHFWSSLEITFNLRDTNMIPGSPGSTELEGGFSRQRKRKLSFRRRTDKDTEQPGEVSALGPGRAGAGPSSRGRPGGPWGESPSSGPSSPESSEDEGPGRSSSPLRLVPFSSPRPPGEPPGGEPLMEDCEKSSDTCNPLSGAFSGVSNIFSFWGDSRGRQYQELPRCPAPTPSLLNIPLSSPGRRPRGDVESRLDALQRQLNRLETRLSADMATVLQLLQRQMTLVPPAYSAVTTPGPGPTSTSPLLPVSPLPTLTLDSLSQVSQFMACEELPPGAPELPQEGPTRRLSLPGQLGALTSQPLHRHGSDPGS
Summary of the method: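 Automated whole-cell patch clamp of hERG current in mammalian cells at room temperature. Compounds applied at 0.1, 1, 3, 10 and 30 μM, 3 min per concentration, n≥2 cells each.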

FLT3-ITD = assay: ADP-Glo Kinase Assay, Flt3 ITD; type: biochemical, Human; details: 1 μM compound
Procedure: Compounds of the present invention were tested for their inhibitory activity against Pim-1, Pim-2, Pim-3, Flt3 wt, Flt3 ITD, CDK2/E and DYRK1. The testing of the compounds was carried out using the ADP-Glo™ Kinase Assay from Promega Corporation (Madison, Wis., USA).
The ADP-Glo™ Kinase Assay is a luminescent ADP detection assay to measure kinase activity by quantifying the amount of ADP produced during a kinase reaction. The kinase assay is performed in kinase assay buffer (5 mM MOPS, pH 7.5, 5 mM MgCl2, 0.4 mM EDTA, 1.5 mM DTT). Test samples initially dissolved in DMSO at 10 mM were diluted with the assay buffer to 1000 nM. A 30 μL volume/well of a mixture of substrates containing ATP (final ATP concentration in each kinase assay was equal to its apparent ATP Km).
The assay was performed in two steps: first, after the kinase reaction, an equal volume of ADP-Glo™ Reagent was added to terminate the kinase reaction and deplete the remaining ATP. Second, the Kinase Detection Reagent was added to simultaneously convert ADP to ATP and allowed the newly synthesized ATP to be measured using a luciferase/luciferin reaction. The luminescent signal generated was proportional to the ADP concentration produced and was correlated with kinase activity. A microplate spectrophotometer (Synergy 2 multi-mode microplate reader [BioTek]) was used for detecting the luminescence. The data was normalized and the percent of inhibition was obtained according to the following equation: […]

Sequence of Pim-1 (P11309 whole entry): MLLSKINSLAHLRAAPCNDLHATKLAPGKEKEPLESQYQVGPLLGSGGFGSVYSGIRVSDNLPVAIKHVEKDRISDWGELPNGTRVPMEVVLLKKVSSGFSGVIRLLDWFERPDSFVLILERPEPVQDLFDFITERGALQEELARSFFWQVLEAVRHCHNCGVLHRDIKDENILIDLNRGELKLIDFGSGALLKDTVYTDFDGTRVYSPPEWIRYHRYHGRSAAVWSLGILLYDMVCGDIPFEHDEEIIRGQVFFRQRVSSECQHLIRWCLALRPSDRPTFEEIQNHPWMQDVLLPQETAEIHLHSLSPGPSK

Row | inhibition at 1 µM (Pim-1) [%] | inhibition at 1 µM (Pim-2) [%] | inhibition at 1 µM (FLT3wt) [%] | inhibition at 1 µM (CDK2/E) [%] | inhibition at 1 µM (DYRK1) [%] | pIC50 (MV4-11 cells; MV4-11, 72 h) | pIC50 (HepG2 cells; HepG2, 72 h) | pIC50 (MOLM16 cells; MOLM16, 72 h) | Structure (SMILES) | pIC50 (Jeko-1 cells) | pIC50 (SW-480 cells) | pIC50 (MOLM13 cells) | KG-1 ED50 (KG-1 cells) [nM] | pIC50 (hERG potassium channel) | Flt3ITD % INH (1 μM) (FLT3-ITD) [%] | further results
1 | > 95 | 68 | 65 | 36 | > 95 | 6.70 | 6.22 | 6.66 | CC(C)n1c(C2CCNCC2)nc2c([N+](=O)[O-])c(Br)c(Br)cc21 [Example 26A, 5,6-dibromo-4-nitro-2-(piperidin-4-yl)-1-(propan-2-yl)-1H-1,3-benzodiazole] | 6.52 | – | 6.49 | 470 | – | 93 | –
2 | > 95 | 53 | 55 | 21 | > 95 | 6.22 | 6.15 | – | Cl.O=[N+]([O-])c1c(Br)c(Br)cc2c1nc(N1CCNCC1)n2C1CCCC1 [Example 2D, 5,6-dibromo-1-cyclopentyl-4-nitro-2-(piperazin-1-yl)-1H-1,3-benzodiazole hydrochloride] | – | 6.22 | – | – | 5.80 | – | –
3 | > 95 | 82 | 27 | 22 | 79 | 6.22 | 5.82 | 7.10 | CC(C)n1c(N2CC[C@@H](N)C2)nc2c(C#N)c(Br)c(Br)cc21 [Example 1BI] | 6.15 | – | 5.49 | 90 | – | – | pIC50 (hERG potassium channel; human, 3 min): 5.29
4 | – | – | – | – | – | – | – | – | CCCn1c(N2CCNCC2)nc2c([N+](=O)[O-])c(Br)c(Br)cc21 [Example 1M] | – | – | – | – | 6.28 | – | Pim-1 % INH (1 μM) (Pim-1): >95%; Pim-2 % INH (1 μM) (Pim-2): 44%; Flt3wt % INH (1 μM) (FLT3wt): 46%; CDK2/E % INH (1 μM) (CDK2/E): <5%; DYRK1A % INH (1 μM) (DYRK1): >95%; IC50 (MV4-11 cells; 72 hours): 600 nM; IC50 (HepG2 cells; 72 hours): 1800 nM; IC50 (SW-480 cells): 2100 nM
5 | – | – | – | – | – | – | – | – | CC(C)n1c(N2CCNC[C@H]2C)nc2c([N+](=O)[O-])c(Br)c(Br)cc21 [Example 1AX] | – | – | – | 120 | 5.91 | 96 | Pim-1 % INH (1 μM) (Pim-1): >95%; Pim-2 % INH (1 μM) (Pim-2): 77%; Flt3wt % INH (1 μM) (FLT3wt): 83%; DYRK1A % INH (1 μM) (DYRK1): >95%; IC50 (MV4-11 cells; 72 hours): 100 nM; IC50 (HepG2 cells; 72 hours): 100 nM; IC50 (Jeko-1 cells): >100 nM; IC50 (MOLM16 cells; 72 hours): 20 nM; IC50 (MOLM13 cells): 60 nM

Row | Structure (SMILES) | inhibition at 1 µM (Pim-1) [%] | inhibition at 1 µM (Pim-2) [%] | inhibition at 1 µM (FLT3wt) [%] | inhibition at 1 µM (CDK2/E) [%] | inhibition at 1 µM (DYRK1) [%] | pIC50 (MV4-11 cells; MV4-11, 72 h) | pIC50 (HepG2 cells; HepG2, 72 h) | pIC50 (MOLM16 cells; MOLM16, 72 h) | pIC50 (Jeko-1 cells) | pIC50 (SW-480 cells) | pIC50 (MOLM13 cells) | KG-1 ED50 (KG-1 cells) [nM] | pIC50 (hERG potassium channel) | Flt3ITD % INH (1 μM) (FLT3-ITD) [%] | further results
6 | CC(C)n1c(N2CCNCC2)nc2c([N+](=O)[O-])c(Br)c(Br)cc21 [Example 2A, 5,6-dibromo-4-nitro-2-(piperazin-1-yl)-1-(propan-2-yl)-1H-1,3-benzodiazole hydrochloride] | > 95 | 49 | 66 | 44 | > 95 | 6.52 | 6.22 | 6.85 | 6.40 | 6.10 | 6.60 | 630 | 5.51 | – | –
7 | CCn1c(N2CCNCC2)nc2c([N+](=O)[O-])c(Br)c(Br)cc21 [Example 1A, 5,6-dibromo-1-ethyl-4-nitro-2-(piperazin-1-yl)-1H-1,3-benzodiazole hydrochloride] | 81 | 22 | 26 | < 5 | 66 | – | – | – | 6.10 | 5.60 | 6.15 | – | – | 81 | pIC50 (MV4-11 cells; MV4-11, 72 hours): 6.30; pIC50 (HepG2 cells; HepG2, 72 hours): 5.89; pIC50 (MOLM16 cells; MOLM16, 72 hours): 6.30; pIC50 (hERG potassium channel; human, 3 min): 5.80
